# Non-standard residues stand in square brackets, D forms with d. Residues, ends and D or L forms follow the SMILES beside them. αMeP = C[C@@]1(C(=O)O)CCCN1
# Legend:
# [1] = target: ATP-dependent Clp protease proteolytic subunit, mitochondrial (Homo sapiens, UniProt Q16740); test: Activation of human ClpP extracted from Escherichia coli using Ac-WLA-AMC as substrate assessed as fluorescence signal measured after 10 mins incubation
# OCI-Ly10 = test: Antiproliferative activity against human OCI-Ly10 cells assessed as cell viability measured after 72 hrs incubation by CellTiter-based growth inhibition assay; conditions: OCI-Ly10, 72 h
# [2] = target: Voltage-gated inwardly rectifying potassium channel KCNH2 (Homo sapiens, UniProt Q12809)
# [3] = target: T1, 3-hydroxy-3-methylglutaryl-coenzyme A reductase (Rattus norvegicus, UniProt P51639)
# T1 sequence (P51639 whole entry): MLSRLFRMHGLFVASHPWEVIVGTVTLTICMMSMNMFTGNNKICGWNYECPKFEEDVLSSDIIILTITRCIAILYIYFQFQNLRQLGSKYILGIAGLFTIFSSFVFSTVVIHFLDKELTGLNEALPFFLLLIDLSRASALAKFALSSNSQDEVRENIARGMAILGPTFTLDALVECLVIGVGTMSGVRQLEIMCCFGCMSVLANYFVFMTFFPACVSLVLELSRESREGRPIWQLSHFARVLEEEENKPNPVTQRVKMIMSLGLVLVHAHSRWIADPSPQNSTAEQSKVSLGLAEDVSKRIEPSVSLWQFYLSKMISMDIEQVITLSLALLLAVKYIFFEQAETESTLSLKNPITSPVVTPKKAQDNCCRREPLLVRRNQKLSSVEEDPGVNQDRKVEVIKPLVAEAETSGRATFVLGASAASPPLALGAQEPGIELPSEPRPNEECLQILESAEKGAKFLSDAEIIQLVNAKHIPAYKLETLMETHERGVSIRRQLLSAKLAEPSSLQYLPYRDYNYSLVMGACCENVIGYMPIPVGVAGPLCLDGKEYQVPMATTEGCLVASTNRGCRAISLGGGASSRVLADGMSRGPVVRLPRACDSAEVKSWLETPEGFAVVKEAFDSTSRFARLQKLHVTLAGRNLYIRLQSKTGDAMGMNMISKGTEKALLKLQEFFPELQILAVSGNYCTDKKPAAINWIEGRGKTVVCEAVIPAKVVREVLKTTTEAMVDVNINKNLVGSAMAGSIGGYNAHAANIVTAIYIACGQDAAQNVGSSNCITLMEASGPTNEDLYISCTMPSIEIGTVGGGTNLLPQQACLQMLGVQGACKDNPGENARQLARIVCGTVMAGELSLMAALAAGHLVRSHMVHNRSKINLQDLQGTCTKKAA
# Description: Inhibition of HMG-CoA reductase activity in rat liver microsomes
# in vivo = conditions: rat, blood, iv, 10 mg/kg
# Description: Elimination half life in rat blood at 10 mg/kg, iv measured after 12 hrs
# Chain of ATP-dependent Clp protease proteolytic subunit, mitochondrial (Q16740 whole entry): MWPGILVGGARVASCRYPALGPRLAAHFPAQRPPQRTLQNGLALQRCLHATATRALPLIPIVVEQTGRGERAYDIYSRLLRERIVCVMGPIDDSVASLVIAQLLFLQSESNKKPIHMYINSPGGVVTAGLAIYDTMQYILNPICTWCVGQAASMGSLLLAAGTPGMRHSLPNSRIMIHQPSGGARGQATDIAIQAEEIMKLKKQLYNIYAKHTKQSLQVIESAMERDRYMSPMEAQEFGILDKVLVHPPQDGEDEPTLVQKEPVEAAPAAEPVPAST
# Chain of Voltage-gated inwardly rectifying potassium channel KCNH2 (Q12809 whole entry): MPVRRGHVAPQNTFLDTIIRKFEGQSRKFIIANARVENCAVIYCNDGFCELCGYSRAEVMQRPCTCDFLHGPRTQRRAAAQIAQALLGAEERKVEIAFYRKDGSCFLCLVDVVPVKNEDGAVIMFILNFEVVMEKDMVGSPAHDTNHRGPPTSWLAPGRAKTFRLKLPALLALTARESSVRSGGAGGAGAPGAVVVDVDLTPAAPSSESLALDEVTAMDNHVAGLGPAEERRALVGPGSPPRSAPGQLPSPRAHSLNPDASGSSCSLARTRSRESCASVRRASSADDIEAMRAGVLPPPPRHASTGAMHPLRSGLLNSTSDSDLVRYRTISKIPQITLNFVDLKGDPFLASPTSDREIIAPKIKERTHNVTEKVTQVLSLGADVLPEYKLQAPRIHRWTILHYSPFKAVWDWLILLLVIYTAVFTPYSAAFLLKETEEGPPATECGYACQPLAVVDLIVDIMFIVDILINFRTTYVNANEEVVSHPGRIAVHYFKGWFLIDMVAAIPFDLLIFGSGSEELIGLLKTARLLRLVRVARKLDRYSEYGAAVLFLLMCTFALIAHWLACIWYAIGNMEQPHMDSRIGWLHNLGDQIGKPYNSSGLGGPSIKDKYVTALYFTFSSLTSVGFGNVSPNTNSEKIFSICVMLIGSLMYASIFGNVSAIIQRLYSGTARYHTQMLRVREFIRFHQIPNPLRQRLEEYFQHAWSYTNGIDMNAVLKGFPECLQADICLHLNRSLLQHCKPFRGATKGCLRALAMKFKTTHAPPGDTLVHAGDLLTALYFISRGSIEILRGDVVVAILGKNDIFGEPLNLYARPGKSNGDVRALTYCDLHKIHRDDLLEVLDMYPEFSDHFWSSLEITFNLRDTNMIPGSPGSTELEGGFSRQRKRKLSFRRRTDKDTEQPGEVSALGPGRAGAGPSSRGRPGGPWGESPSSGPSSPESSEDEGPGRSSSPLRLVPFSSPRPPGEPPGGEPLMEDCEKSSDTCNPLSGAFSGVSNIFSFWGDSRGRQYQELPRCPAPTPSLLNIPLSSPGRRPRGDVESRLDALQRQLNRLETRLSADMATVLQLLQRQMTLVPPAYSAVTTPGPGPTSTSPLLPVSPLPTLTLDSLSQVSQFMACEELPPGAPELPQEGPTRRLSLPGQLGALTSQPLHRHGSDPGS
EC50 [1] [nM],IC50 (OCI-Ly10) [nM],IC50 [3] [nM],half-life at 12 h (in vivo) [h],Structure (SMILES),IC50 [2] [nM]
3960,6400,–,–,C[C@@H]1Cc2nc(NCc3ccc(C(F)(F)F)cc3)[nH]c(=O)c2CN1Cc1ccncc1,–
56.1,41.6,–,–,C[C@@H]1Cc2nc(NCc3ccc(C(F)(F)F)cc3)[nH]c(=O)c2CN1Cc1cccc(C#N)c1,–
270,1290,–,–,C[C@@H]1Cc2nc(NCc3ccc(C(F)(F)F)cc3)[nH]c(=O)c2CN1Cc1cccc(OC(F)(F)F)c1,–
1290,3100,–,–,C[C@@H]1Cc2nc(NCc3ccc(C(F)(F)F)cc3)[nH]c(=O)c2CN1Cc1ccccc1F,–
1000,9010,–,–,COc1cccc(CN2Cc3c(nc(NCc4ccc(C(F)(F)F)cc4)[nH]c3=O)C[C@H]2C)c1,–
272,153,–,–,C[C@@H]1Cc2nc(NCc3ccc(C(F)(F)F)cc3)[nH]c(=O)c2CN1Cc1cccc(F)c1,–

# Further lines, the compound ahead of its results:
Structure (SMILES),EC50 [1] [nM],IC50 (OCI-Ly10) [nM],IC50 [3] [nM],half-life at 12 h (in vivo) [h],IC50 [2] [nM]
C[C@@H]1Cc2nc(NCc3ccc(C(F)(F)F)cc3)[nH]c(=O)c2CN1Cc1ccccc1O,846,1290,–,–,–
C[C@@H]1Cc2nc(NCc3ccc(Br)c(F)c3)[nH]c(=O)c2CN1Cc1cccc(C#N)c1,265,47.5,–,–,–
Cc1cccc(CNc2nc3c(c(=O)[nH]2)CN(Cc2cccc(C#N)c2)[C@H](C)C3)c1,113,148,–,–,–
Cc1cc(Br)ccc1CNc1nc2c(c(=O)[nH]1)CN(Cc1cccc(C#N)c1)[C@H](C)C2,93,86.9,–,–,–
C[C@@H]1Cc2nc(NCc3ccc(Br)cc3)[nH]c(=O)c2CN1Cc1cccc(C#N)c1,–,–,–,–,4910
CC[C@H](C)C(=O)O[C@H]1CCC=C2C=C[C@H](C)[C@H](CC[C@@H]3C[C@@H](O)CC(=O)O3)[C@H]21 [MEVASTATIN],–,–,5.6,–,–
C[C@@]1(C(=O)N[C@@H](CCC(=O)O)C(=O)O)CCCN1C(=O)CN [TROFINETIDE] (H-Gly-[αMeP]-Glu-OH),–,–,–,1.23,–
C[C@@H]1Cc2nc(NCc3cccc(Br)c3)[nH]c(=O)c2CN1Cc1cccc(C#N)c1,44.8,89.1,–,–,–
O=c1nc(NCc2ccc(C(F)(F)F)cc2)[nH]c2c1CN(Cc1ccccc1)CC2,2410,–,–,–,–
C[C@@H]1Cc2nc(NCc3ccccc3Br)[nH]c(=O)c2CN1Cc1cccc(C#N)c1,349,119,–,–,–
C[C@@H]1Cc2nc(NCc3ccc(C(F)(F)F)cc3)[nH]c(=O)c2CN1CC1CCCCC1,302,789,–,–,–
